Series [1] in a line: in vitro. The following applies: human. Put shortly: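 HK2 cells were seeded at 2000 per well in DMEM/F12 with 10% FBS and left to attach for 24 h at 37 °C, 5% CO2. They were then exposed for 24 h to 3-fold peptide dilutions starting from 600 μM solutions in quadruplicate. LDH release was read at 450 nm, and CC50 was fitted from dose-response curves.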
Series [2] concerns E. coli ATCC 25922. The following applies: ATCC 25922. Put shortly:
(§1)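 Mid-log cultures grown in Mueller Hinton broth at 37° C were tested by 2-fold broth microdilution at 5×10^5 CFU/mL final. Compounds were dissolved in water and tested over a final range of 32 to 0.015 μg/mL.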

Series [3] deals with K. pneumoniae ATCC 700603, MDR. To be noted: ATCC 700603. The gist of the method:
as §1

Series [4] concerns K. pneumoniae GN_106, PmxR. To be noted: GN 106, PmxR. The gist of the method: as §1
The subject of series [5] is K. pneumoniae ATCC 13883. The following applies: ATCC 13883. Put shortly:
as §1

Series [6] has as its system P. aeruginosa GN_043, PmxR. To be noted: P. aeruginosa GN_043, PmxR. Put shortly: as §1
Series [7] has as its system P. aeruginosa GN_105, PmxR. To be noted: GN 105, PmxR. Put shortly:
as §1

Series [8] has as its system K. pneumoniae GN_102 PmxR. To be noted: GN 102 PmxR. The gist of the method: as §1
The subject of series [9] is A. baumannii ATCC 19606. To be noted: ATCC 19606. Put shortly: as §1
Series [10] has as its system A. baumannii GN_093 PmxR. The following applies: GN 093 PmxR. The gist of the method:
as §1

Series [11] deals with P. aeruginosa ATCC 27853. The following applies: ATCC 27853. Put shortly: as §1
Series [12] deals with K. pneumoniae ATCC BAA-2146, NDM-1 pos. To be noted: ATCC BAA-2146. Put shortly: as §1
For series [13], the system named is S. aureus ATCC 25923, MSSA. To be noted: ATCC 25923. The gist of the method: as §1

This is an account of results in US11279733B2, “Peptide antibiotics” (priority 2017, dated 2022).

The structures appear in SMILES notation. Values after ≈ are worked out from the molar mass of the structure shown. Positions of bridges follow the written chain, without caps; N, C: chain ends. Non-standard residues stand in square brackets, D forms with d. Residues, ends and D or L forms follow the SMILES beside them. *: point of attachment. Decanoyl(3R-OH) = CCCCCCC[C@@H](O)CC(=O)*; dBip = N[C@H](Cc1ccc(-c2ccccc2)cc1)C(=O)O; dDab = NCC[C@@H](N)C(=O)O; dDap = NC[C@@H](N)C(=O)O; Dab = NCC[C@H](N)C(=O)O

In turn, `CCCCCCC[C@@H](O)CC(=O)N[C@H](CCN)C(=O)N[C@H]1CCNC(=O)[C@H]([C@@H](C)O)NC(=O)[C@H](CCN)NC(=O)[C@H](CCN)NC(=O)[C@H](CC(C)C)NC(=O)[C@@H](Cc2ccc(-c3ccccc3)cc2)NC(=O)[C@H](CCN)NC1=O` [compound 5608, 3(R)OH-nC9CO-D-Dab-cyc[L-Dab-L-Dab-D-Bip-L-Leu-L-Dab-L-Dab-L-Thr]] ({Decanoyl(3R-OH)}-[dDab][Dab][Dab][dBip]L[Dab][Dab]T; lactam 2-C) displayed a CC50 at 24 h in [1] of 37 µM. Further, the “MIC E. coli ATCC 25922” value in series [2] came out at 2 µg/mL (≈ 1.8 µM). The “MIC K. pneumoniae ATCC 700603, MDR” value in [3] is 2 µg/mL (≈ 1.8 µM). Further, in series [4], the “MIC K. pneumoniae GN_106, PmxR” value is 8 µg/mL (≈ 7.22 µM). Also, the “MIC K. pneumoniae ATCC 13883” value in series [5] turned out to be 2 µg/mL (≈ 1.8 µM). For the same molecule, in series [6], the “MIC P. aeruginosa GN_043, PmxR” value came out at 1 µg/mL (≈ 0.902 µM). The “MIC P. aeruginosa GN_105, PmxR” value in series [7] was 2 µg/mL (≈ 1.8 µM). Also, in series [8], the “MIC K. pneumoniae GN_102 PmxR” value turned out to be 4 µg/mL (≈ 3.61 µM). Further, the “MIC A. baumannii ATCC 19606” value in [9] amounted to 4 µg/mL (≈ 3.61 µM). Moreover, the “MIC A. baumannii GN_093 PmxR” value in series [10] stood at 16 µg/mL (≈ 14.4 µM). In addition, in series [11], the “MIC P. aeruginosa ATCC 27853” value is 2 µg/mL (≈ 1.8 µM). Moreover, the “MIC K. pneumoniae ATCC BAA-2146, NDM-1 pos” value in series [12] was determined as 2 µg/mL (≈ 1.8 µM). Also, the “MIC S. aureus ATCC 25923, MSSA” value in series [13] was 4 µg/mL (≈ 3.61 µM).
In turn, `CCCCCCC[C@@H](O)CC(=O)N[C@H](Cc1c[nH]c2ccccc12)C(=O)N[C@H]1CCNC(=O)[C@H]([C@@H](C)O)NC(=O)[C@H](CCN)NC(=O)[C@H](CCN)NC(=O)[C@H](CC(C)C)NC(=O)[C@@H](Cc2ccccc2)NC(=O)[C@H](CCN)NC1=O` [compound 6394, 3(R)OH-nC9CO-D-Trp-cyc[L-Dab-L-Dab-D-Phe-L-Leu-L-Dab-L-Dab-L-Thr]] ({Decanoyl(3R-OH)}-[dW][Dab][Dab][dF]L[Dab][Dab]T; lactam 2-C) gave a CC50 at 24 h in series [1] greater than 300 µM. The “MIC E. coli ATCC 25922” value in [2] is greater than 64 µg/mL. The “MIC K. pneumoniae ATCC 700603, MDR” value in series [3] is greater than 64 µg/mL. In addition, the “MIC K. pneumoniae GN_106, PmxR” value in series [4] was greater than 32 µg/mL. Also, the “MIC K. pneumoniae ATCC 13883” value in [5] is greater than 64 µg/mL. In series [6], the “MIC P. aeruginosa GN_043, PmxR” value is greater than 32 µg/mL. The “MIC P. aeruginosa GN_105, PmxR” value in [7] was greater than 32 µg/mL. Moreover, the “MIC K. pneumoniae GN_102 PmxR” value in series [8] is greater than 32 µg/mL. In addition, in [9], the “MIC A. baumannii ATCC 19606” value was greater than 64 µg/mL. The “MIC A. baumannii GN_093 PmxR” value in [10] is greater than 32 µg/mL. Besides, the “MIC P. aeruginosa ATCC 27853” value in series [11] was 64 µg/mL (≈ 57.2 µM). The “MIC K. pneumoniae ATCC BAA-2146, NDM-1 pos” value in series [12] was greater than 64 µg/mL. In addition, the “MIC S. aureus ATCC 25923, MSSA” value in [13] was greater than 32 µg/mL.
In turn, `CCCCCCC[C@@H](O)CC(=O)N[C@H](CN)C(=O)N[C@H]1CCNC(=O)[C@H]([C@@H](C)O)NC(=O)[C@H](CCN)NC(=O)[C@H](CCN)NC(=O)[C@H](CC(C)C)NC(=O)[C@@H](Cc2ccccc2)NC(=O)[C@H](CCN)NC1=O` [compound 6395, 3(R)OH-nC9CO-D-Dap-cyc[L-Dab-L-Dab-D-Phe-L-Leu-L-Dab-L-Dab-L-Thr]] ({Decanoyl(3R-OH)}-[dDap][Dab][Dab][dF]L[Dab][Dab]T; lactam 2-C) displayed a CC50 at 24 h in series [1] greater than 300 µM. The “MIC E. coli ATCC 25922” value in series [2] came to 2 µg/mL (≈ 1.96 µM). Besides, the “MIC K. pneumoniae ATCC 700603, MDR” value in [3] was 1 µg/mL (≈ 0.982 µM). In addition, the “MIC K. pneumoniae GN_106, PmxR” value in series [4] was 32 µg/mL (≈ 31.4 µM). In series [5], the “MIC K. pneumoniae ATCC 13883” value was 8 µg/mL (≈ 7.86 µM). Further, in series [6], the “MIC P. aeruginosa GN_043, PmxR” value is 2 µg/mL (≈ 1.96 µM). Further, the “MIC P. aeruginosa GN_105, PmxR” value in series [7] was 2 µg/mL (≈ 1.96 µM). Also, in series [8], the “MIC K. pneumoniae GN_102 PmxR” value is 16 µg/mL (≈ 15.7 µM). In series [9], the “MIC A. baumannii ATCC 19606” value was found to be 16 µg/mL (≈ 15.7 µM). The “MIC A. baumannii GN_093 PmxR” value in [10] is greater than 32 µg/mL. Moreover, the “MIC P. aeruginosa ATCC 27853” value in [11] was 2 µg/mL (≈ 1.96 µM). Further, in series [12], the “MIC K. pneumoniae ATCC BAA-2146, NDM-1 pos” value was 2 µg/mL (≈ 1.96 µM). Further, the “MIC S. aureus ATCC 25923, MSSA” value in [13] was greater than 32 µg/mL.
